PubChem BioAssay AID2060600 (Molecular Pharmacology Branch, DTP, NCI, 2025)

System: 996289-038-R-J1-PDC complex spheroid viability
Experiment: Anticancer human tumor 996289-038-R-J1-PDC patient-derived colon adenocarcinoma cell line growth inhibition [CLK]
Conditions: for IC50: curve of first compound; for viability, T/C: stronger effect = lower value
From the text: A high-throughput screen of multi-cell type tumor spheroids was designed to identify active combinations of […] and targeted small molecules. Complex spheroids include a stromal component modeled by human endothelial cells (HUVEC) and fibroblasts modeled by human mesenchymal stem cells (MSCs). The concentration ranges selected for each drug and investigational agent were based upon clinically achievable concentrations if the clinical Cmax of the agent was known.
Compounds. The drugs and investigational agents: cirtuvivint (SM08502; NSC835563), CC-671 (NSC850746), vemurafenib (NSC761431), tapotoclax (NSC804041), sotorasib (NSC818433), adagrasib (NSC831453), MRTX-1133 (NSC836407), BAY2416964 (NSC825713), copanlisib (NSC816437), inavolisib (NSC800729), abemaciclib (NSC768073), osimertinib (NSC779217), entinostat (NSC756642), eltanexor (KPT-8602, NSC794443), venetoclax (NSC766270), ceralasertib (NSC777638), bortezomib (NSC756655), olaparib (NSC753686), talazoparib (NSC767125), alisertib (NSC759677), peposertib (NSC802822), gemcitabine (NSC613327), 5-fluorouracil (NSC19893), SN-38 (NSC673596), oxaliplatin (NSC266046), paclitaxel (NSC125973), and doxorubicin (NSC123127), were obtained from the National Cancer Institute (NCI) Developmental Therapeutics Program Chemical Repository. The FDA-approved anticancer drug set is available from the Developmental Therapeutics Program at https://dtp.cancer.gov/organization/dscb/obtaining/available plates.htm. […] The stock solutions were prepared in dimethyl sulfoxide (DMSO, Sigma-Aldrich, St. Louis, MO, cat. D2650), except for the platinum complexes which were prepared in saline (Quality Biological, Gaithersburg, MD, cat. 114-055-101), at 800-fold the tested concentration and stored at -70 degrees C prior to their use. All drugs and investigational agents were tested over a range starting from a high concentration at or near the clinical Cmax and decreasing in half-log increments. If the clinical Cmax for an agent had not been determined, the highest concentration tested was 10 microM.
Cell Culture. All cells were maintained in an incubator at 37 degrees C and 5% CO2 with 95% humidity. The PDC lines were cultured according to standard operating procedures established by the NCI PDMR. Briefly, all PDCs were thawed and cultured in Matrigel-coated flasks prepared with a working solution of 1X Ham's F-12 nutrient mix, without supplementation (Invitrogen, Waltham, MA, cat. 11765054), 100 U/mL penicillin-streptomycin (Invitrogen, cat. 15140122), and 2.5% Matrigel (Corning Inc., Corning, NY, cat. 354248) for the first three passages. The 947758-054-R-J2-PDC line was cultured in 6B/Colon 1A media, which includes advanced DMEM/F-12 (Thermo Fisher Scientific, cat. 12634028), 10 mM HEPES (Thermo Fisher Scientific, cat. 15630080), 1X GlutaMAX supplement (Thermo Fisher Scientific, cat. 35050061), 0.1 mg/mL primocin (InvivoGen, cat. ant-pm-2), 10% defined fetal bovine serum, heat inactivated (HyClone Laboratories Inc., cat. SH30070.03HI), 1.25 mM N-Acetyl-L-cysteine (Sigma-Aldrich, cat. A9165), 10 mM nicotinamide (Sigma-Aldrich, cat. N0636), 1X B-27 supplement (Thermo Fisher Scientific, cat. 17504044), 1X N-2 supplement (Thermo Fisher Scientific, cat. 17502048), and 10 microM Y-27632 dihydrochloride (Tocris Bioscience, cat. 1254). The 876862-298-R-J1-PDC was cultured in 6E media, which includes all 6B/Colon 1A media components plus 50% L-WRN conditioned media (ATCC, cat. CRL-3276), 50 ng/mL recombinant human EGF recombinant protein (hEGF; Thermo Fisher Scientific, cat. PHG0311), 10 ng/mL recombinant human fibroblast growth factor 10 (hGFG-10; PeproTech, cat. 100-26), 1 ng/mL recombinant human fibroblast growth factor 2 (hFGF-2; PeproTech, cat. 100-18B), and 1 µM prostaglandin E2 (PGE2; Tocris, cat. 2296). The 227483-062-R1-J1-PDC line was cultured in Panc media, containing all 6E components except hFGF-2, with the addition of 500 nM SB-431542 (Selleckchem, cat. S1067) and 10 nM gastrin (Tocris, cat. 3006). […]

[1] = second compound 0.0316 µM, first compound 0.0316 µM
[2] = second compound 0.0316 µM, first compound 0.1 µM
[3] = second compound 0.0316 µM, first compound 0.316 µM
[4] = second compound 0.0316 µM, first compound 1 µM
[5] = second compound 0.0316 µM, first compound 3.16 µM
[6] = second compound 0.0316 µM, first compound 10 µM
[7] = second compound 0.1 µM, first compound 0.0316 µM
[8] = second compound 0.1 µM, first compound 0.1 µM
[9] = second compound 0.1 µM, first compound 0.316 µM
[10] = second compound 0.1 µM, first compound 1 µM
[11] = second compound 0.1 µM, first compound 3.16 µM
[12] = second compound 0.1 µM, first compound 10 µM
[13] = second compound 0.316 µM, first compound 0.0316 µM
[14] = second compound 0.316 µM, first compound 0.1 µM
[15] = second compound 0.316 µM, first compound 0.316 µM
[16] = second compound 0.316 µM, first compound 1 µM
[17] = second compound 0.316 µM, first compound 3.16 µM
[18] = second compound 0.316 µM, first compound 10 µM
[19] = second compound 1 µM, first compound 0.0316 µM
[20] = second compound 1 µM, first compound 0.1 µM
[21] = second compound 1 µM, first compound 0.316 µM
[22] = second compound 1 µM, first compound 1 µM
[23] = second compound 1 µM, first compound 3.16 µM
[24] = second compound 1 µM, first compound 10 µM
[25] = second compound 3.16 µM, first compound 0.0316 µM
[26] = second compound 3.16 µM, first compound 0.1 µM
[27] = second compound 3.16 µM, first compound 0.316 µM
[28] = second compound 3.16 µM, first compound 1 µM
[29] = second compound 3.16 µM, first compound 3.16 µM
[30] = second compound 3.16 µM, first compound 10 µM
[31] = second compound 10 µM, first compound 0.0316 µM
[32] = second compound 10 µM, first compound 0.1 µM
[33] = second compound 10 µM, first compound 0.316 µM
[34] = second compound 10 µM, first compound 1 µM
[35] = second compound 10 µM, first compound 3.16 µM
[36] = second compound 10 µM, first compound 10 µM
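Note: spheroids exposed to the agents for 7 days before readout.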

## C#Cc1c(F)ccc2cc(O)cc(-c3ncc4c(N5CC6CCC(C5)N6)nc(OCC56CCCN5CC(F)C6)nc4c3F)c12 (stereo unspecified) + CN1CCN(c2cc(C(=O)Nc3cc4cc(-c5cnn(C)c5)ccc4cn3)ccn2)CC1
Second compound 0.0316 µM
  IC50: 965 nM
Second compound 0.1 µM
  IC50: 589 nM
Second compound 0.316 µM
  IC50: 92.3 nM
Second compound 1 µM
  IC50: < 31.6 nM
Second compound 3.16 µM
  IC50: < 31.6 nM
Second compound 10 µM
  IC50: < 31.6 nM
[1]
  viability, T/C: 102%
[2]
  viability, T/C: 92.2%
[3]
  viability, T/C: 64.3%
[4]
  viability, T/C: 52.9%
[5]
  viability, T/C: 34.8%
[6]
  viability, T/C: 28.4%
[7]
  viability, T/C: 85.5%
[8]
  viability, T/C: 71.2%
[9]
  viability, T/C: 58.1%
[10]
  viability, T/C: 45%
[11]
  viability, T/C: 28.6%
[12]
  viability, T/C: 22.2%
[13]
  viability, T/C: 58.7%
[14]
  viability, T/C: 50.2%
[15]
  viability, T/C: 35.9%
[16]
  viability, T/C: 26.7%
[17]
  viability, T/C: 20.7%
[18]
  viability, T/C: 16.6%
[19]
  viability, T/C: 4.83%
[20]
  viability, T/C: 4.1%
[21]
  viability, T/C: 3.5%
[22]
  viability, T/C: 2.81%
[23]
  viability, T/C: 2.14%
[24]
  viability, T/C: 2.96%
[25]
  viability, T/C: 1.47%
[26]
  viability, T/C: 1.31%
[27]
  viability, T/C: 1.59%
[28]
  viability, T/C: 0.95%
[29]
  viability, T/C: 0.67%
[30]
  viability, T/C: 0.45%
[31]
  viability, T/C: 0.72%
[32]
  viability, T/C: 0.61%
[33]
  viability, T/C: 1.23%
[34]
  viability, T/C: 0.99%
[35]
  viability, T/C: 0.36%
[36]
  viability, T/C: 0.65%

## C=C(F)C(=O)N1CCN(c2nc(OCC3CCCN3C)nc3c2CCN(c2cccc4cccc(Cl)c24)C3)CC1CC#N (stereo unspecified) + CN1CCN(c2cc(C(=O)Nc3cc4cc(-c5cnn(C)c5)ccc4cn3)ccn2)CC1
Second compound 0.0316 µM
  IC50: 4600 nM
Second compound 0.1 µM
  IC50: 4410 nM
Second compound 0.316 µM
  IC50: 2880 nM
Second compound 1 µM
  IC50: < 31.6 nM
Second compound 3.16 µM
  IC50: < 31.6 nM
Second compound 10 µM
  IC50: < 31.6 nM
[1]
  viability, T/C: 98.2%
[2]
  viability, T/C: 119%
[3]
  viability, T/C: 97.9%
[4]
  viability, T/C: 104%
[5]
  viability, T/C: 73.4%
[6]
  viability, T/C: 1.4%
[7]
  viability, T/C: 97.1%
[8]
  viability, T/C: 97.5%
[9]
  viability, T/C: 101%
[10]
  viability, T/C: 95.5%
[11]
  viability, T/C: 70.1%
[12]
  viability, T/C: 0.64%
[13]
  viability, T/C: 66.5%
[14]
  viability, T/C: 79.6%
[15]
  viability, T/C: 70.9%
[16]
  viability, T/C: 64.8%
[17]
  viability, T/C: 48.9%
[18]
  viability, T/C: 0.51%
[19]
  viability, T/C: 6.67%
[20]
  viability, T/C: 6.95%
[21]
  viability, T/C: 6.76%
[22]
  viability, T/C: 6.89%
[23]
  viability, T/C: 1.53%
[24]
  viability, T/C: 0.54%
[25]
  viability, T/C: 0.79%
[26]
  viability, T/C: 0.78%
[27]
  viability, T/C: 1.18%
[28]
  viability, T/C: 0.87%
[29]
  viability, T/C: 1.8%
[30]
  viability, T/C: 0.29%
[31]
  viability, T/C: 0.4%
[32]
  viability, T/C: 0.7%
[33]
  viability, T/C: 1.4%
[34]
  viability, T/C: 0.36%
[35]
  viability, T/C: 0.43%
[36]
  viability, T/C: 0.8%

## CC(CO)NC(=O)c1cc(-c2ccc(Cl)cc2)nn(-c2cnn(C)c2)c1=O (stereo unspecified) + CN1CCN(c2cc(C(=O)Nc3cc4cc(-c5cnn(C)c5)ccc4cn3)ccn2)CC1
Second compound 0.0316 µM
  IC50: > 10000 nM
Second compound 0.1 µM
  IC50: > 10000 nM
Second compound 0.316 µM
  IC50: 8010 nM
Second compound 1 µM
  IC50: < 31.6 nM
Second compound 3.16 µM
  IC50: < 31.6 nM
Second compound 10 µM
  IC50: < 31.6 nM
[1]
  viability, T/C: 105%
[2]
  viability, T/C: 96.2%
[3]
  viability, T/C: 95.3%
[4]
  viability, T/C: 107%
[5]
  viability, T/C: 102%
[6]
  viability, T/C: 82.3%
[7]
  viability, T/C: 107%
[8]
  viability, T/C: 104%
[9]
  viability, T/C: 89.8%
[10]
  viability, T/C: 83.9%
[11]
  viability, T/C: 84.9%
[12]
  viability, T/C: 66.9%
[13]
  viability, T/C: 75%
[14]
  viability, T/C: 70.2%
[15]
  viability, T/C: 67.3%
[16]
  viability, T/C: 68.4%
[17]
  viability, T/C: 69.2%
[18]
  viability, T/C: 45.5%
[19]
  viability, T/C: 8.41%
[20]
  viability, T/C: 6.34%
[21]
  viability, T/C: 6.26%
[22]
  viability, T/C: 6.91%
[23]
  viability, T/C: 6.32%
[24]
  viability, T/C: 4.74%
[25]
  viability, T/C: 1.59%
[26]
  viability, T/C: 0.78%
[27]
  viability, T/C: 2.09%
[28]
  viability, T/C: 2.22%
[29]
  viability, T/C: 0.69%
[30]
  viability, T/C: 1.38%
[31]
  viability, T/C: 1.12%
[32]
  viability, T/C: 0.98%
[33]
  viability, T/C: 0.62%
[34]
  viability, T/C: 0.94%
[35]
  viability, T/C: 0.67%
[36]
  viability, T/C: 0.38%
